The test relates to Male Wistar rats. Kind of test: Morris water maze test of learning and memory abilities. In kind it is in vivo. Conditions: feed containing 0.02% PQQ·2Na, 21 days of breeding; one trial daily for 20 days; versus PQQ·2Na-free treatment groups; 9 animals per group. An excerpt:
Male Wistar rats (9 weeks old) were bred using a feed containing 0.02% pyrroloquinoline quinone disodium salt (PQQ·2Na) or 0.3% coenzyme Q10 (CoQ10) alone or both in combination or a feed free from these compounds. From the age of 12 week old after 21 days of breeding, 9 animals per group were subjected to a test of learning and memory abilities using a Morris water maze. Specifically, the bottom of a circular pool (150 cm in diameter, 45 cm in depth) was divided into four quadrants with white lines. A circular platform was placed at the center of one of the quadrants so that it was hidden under the water. Each rat was allowed to swim from different positions of the other three quadrants having no platform, and the time until it reached the platform was measured. This test was tried once daily for a total of 20 days. The learning rate was calculated by the following equation: Learning rate (%)=100−(mean time until rat reaches the platform at the Xth trial/mean time until rat reaches the platform at the first trial)×100

`O=C(O)c1cc(C(=O)O)c2c(n1)C(=O)C(=O)c1cc(C(=O)O)[nH]c1-2.[Na].[Na]` [PQQ·2Na, pyrroloquinoline quinone disodium salt]: the “increasing rate of the learning rate” value is listed as “statistically significantly higher”.

The values above are taken from patent publication US20090192312A1, “Brain Function-Improving Agent, and Functional Food Containing the Improving Agent” (MITSUBISHI GAS CHEMICAL COMPANY, INC., priority 2006, published 2009).
